Among the data in US20090076168A1, “AMINE-BASED AND IMINE-BASED POLYMERS, USES AND PREPARATION THEREOF” (priority 2005, published 2009) are blood pressure and pulsations values, retold here.

This assay has as its system skin. To be noted: guaranine 50 mg/mL, 1-2 mL solution or gel/100 cm^2 of skin, young subjects, compared to untreated subjects. The method, then:
Bioactive molecules can be added and the mixture stirred for 30 minutes to 2 hours according to their liposoluble or water-soluble nature. The addition of collagen or gelatin (1-10%), Polawax™ (1-10%), cetyl alcohol (1-10%), fatty acids (stearic or palmitique, 1-10%), Tween™ 20% and terpenoid (i.e. limonene) is optional.

In the case of `Cn1c(=O)c2c(ncn2C)n(C)c1=O` [guaranine], the blood pressure entry is given as “considerable increase” and the pulsations entry is “considerable increase”.
